Reference: PMC11161644, “An effective and rapidly degradable disinfectant from disinfection byproducts” (Nature Communications, 2024)
“And” between values parts separate entries of the source, which are not always exact repeats. Equal entries are not always repeated. Where two headings read alike, the source gives them in different places.

How the values were obtained:
E. coli (ATCC 25922) = assay: Inactivation of E. coli by disinfectants (membrane filter enumeration, contact time 5 min); assay type: cell-based, Escherichia coli; conditions: for EC (3-log inactivation) / log reduction at 115 µg/mL: Escherichia coli, ATCC25922, 5 min; for log reduction at 115 µg/mL: dose 115 mg L-1, 5 min, read-out: Log (N/N0)
Outline: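 E. coli ATCC 25922 (10^6‒10^7 cells/mL) exposed to a series of DBP doses in 10 mM PBS (pH 7.2; pH effect tested at 6.2, 7.2, 8.2) for 5 min at 22 ± 1 °C. Survivors enumerated by membrane filtration on m-FC medium at 45 °C for 24 h; inactivation relative to undisinfected control.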

P. dumerilii embryos = assay: Developmental toxicity assay with P. dumerilii embryos, dilution factor of in-use concentration (EC50,DF), also after degradation in darkness; assay type: in vivo, Platynereis dumerilii; conditions: for Normal development: 2,6-DCQ
Outline: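 In-use DBP doses (3-log E. coli reduction, pH 7.2) were serially diluted onto embryos at 12 h postfertilization in seawater. Normal development to first larval stage was scored by microscopy at 24 h postfertilization, in duplicate. EC50,DF is the dilution factor giving 50% of control normal development.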

[1] = Degradation in seawater in darkness (pH 6.2, 7.2, 8.2); conditions: for half-life at 10 mg L−1: buffer
Outline: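 DBP spiked at 10 mg L^−1 into pretreated seawater in foil-wrapped quartz flasks, held at 20 °C in darkness for 0‒120 h with 4 mM phosphate buffer at pH 6.2, 7.2 or 8.2. Aliquots analysed by reversed-phase HPLC-UV (230 or 280 nm); duplicate runs.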

[2] = Degradation in seawater with simulated solar irradiation; conditions: for half-life at 10 mg L−1: buffer; for Ln (C/C0): 0 h
Outline: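 DBP at 10 mg L^−1 in pretreated seawater was irradiated with simulated sunlight (4.79 ± 0.04 mW cm^−2) at 20 °C for 0‒96 h, with dark samples alongside. pH was held at 8.2 or set to 6.2/7.2 with 4 mM phosphate buffer. Remaining compound and products were measured by HPLC-UV (230/280 nm), in duplicate.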

[3] = seawater pH 8.2, solar irradiation

O=C1C=C(Cl)C(=O)C(Cl)=C1 [2,6-DCQ, 2,6-dichlorobenzoquinone]
Disinfection efficiency relative to PCMX (ratio of doses for 3-log inactivation) (E. coli (ATCC 25922); E. coli, S. aureus, C. albicans and MS2, pH 7.2, 5 min): 9.0–22 times | Log reduction (Mean ± SD) (E. coli (ATCC 25922); E. coli, dose 7.5 mg L−1, pH 7.2, contact time 5 min): 0.76 ± 0.16 | Log reduction (Mean ± SD) (E. coli (ATCC 25922); E. coli, dose 15 mg L−1, pH 7.2, contact time 5 min): 4.24 ± 0.22 | EC (3-log inactivation) (E. coli (ATCC 25922); pH 7.2, read-out: Dose for achieving 3-log inactivation of E. coli): 12.8 µg/mL | E. coli inactivation rate constant k (E. coli (ATCC 25922); pH 7.2, contact time 5 min): 5.50 L mg‒1 h‒1 | Normal development (P. dumerilii embryos; degradation 0 h, dilution factor 12.8): 7.407% and 6.667% | Normal development (P. dumerilii embryos; degradation 0 h, dilution factor 17.0667): 16.2963% and 20.7921% | Normal development (P. dumerilii embryos; degradation 0 h, dilution factor 21.3333): 42.1875% and 37.2727% | Normal development (P. dumerilii embryos; degradation 0 h, dilution factor 25.6): 62.0155% and 62.3077% | Normal development (P. dumerilii embryos; degradation 0 h, dilution factor 32): 80% and 80.822% | Normal development (P. dumerilii embryos; degradation 0 h, dilution factor 42.6667): 76.7442% and 82.4428% | Normal development (P. dumerilii embryos; degradation 1 h, dilution factor 6.4): 1.886% and 1.145% | Normal development (P. dumerilii embryos; degradation 1 h, dilution factor 8.5333): 4.186% and 11.8136% | Normal development (P. dumerilii embryos; degradation 1 h, dilution factor 10.6667): 24.138% and 24.6154% | Normal development (P. dumerilii embryos; degradation 1 h, dilution factor 12.8): 51.5152% and 47.1698% | Normal development (P. dumerilii embryos; degradation 1 h, dilution factor 16): 70.5883% and 65.2173% | Normal development (P. dumerilii embryos; degradation 2 h, dilution factor 6.4): 11.0368% and 10.1754% | Normal development (P. dumerilii embryos; degradation 2 h, dilution factor 8.5333): 46.773% and 42.9328% | Normal development (P. dumerilii embryos; degradation 2 h, dilution factor 10.6667): 58.0645% and 64.2277% | Normal development (P. dumerilii embryos; degradation 2 h, dilution factor 12.8): 77.7778% and 71.0938% | Normal development (P. dumerilii embryos; degradation 2 h, dilution factor 16): 82.2282% and 85.1792% | Normal development (P. dumerilii embryos; degradation 4 h, dilution factor 1.28): 3.429% and 2.688% | Normal development (P. dumerilii embryos; degradation 4 h, dilution factor 1.6): 15.8884% and 20.3842% | Normal development (P. dumerilii embryos; degradation 4 h, dilution factor 1.8286): 27.1674% and 32.6748% | Normal development (P. dumerilii embryos; degradation 4 h, dilution factor 2.1333): 54.2087% and 56.2379% | Normal development (P. dumerilii embryos; degradation 4 h, dilution factor 2.8444): 78.1453% and 71.7507% | Normal development (P. dumerilii embryos; degradation 4 h, dilution factor 4.2667): 76.1253% and 77.0995% | Normal development (P. dumerilii embryos; degradation 6 h, dilution factor 0.8): 0% | Normal development (P. dumerilii embryos; degradation 6 h, dilution factor 0.9143): 0% | Normal development (P. dumerilii embryos; degradation 6 h, dilution factor 1.0667): 6.421% and 4.805% | Normal development (P. dumerilii embryos; degradation 6 h, dilution factor 1.28): 19.2308% and 16.923% | Normal development (P. dumerilii embryos; degradation 6 h, dilution factor 1.6): 44.5256% and 45.8716% | Normal development (P. dumerilii embryos; degradation 6 h, dilution factor 1.8286): 55.6999% and 52.4319% | Normal development (P. dumerilii embryos; degradation 10 h, dilution factor 0.3657): 0% | Normal development (P. dumerilii embryos; degradation 10 h, dilution factor 0.4267): 10.4446% and 5.949% | Normal development (P. dumerilii embryos; degradation 10 h, dilution factor 0.512): 22.4806% and 12.844% | Normal development (P. dumerilii embryos; degradation 10 h, dilution factor 0.64): 50% and 42.3728% | Normal development (P. dumerilii embryos; degradation 10 h, dilution factor 0.8533): 73.1885% and 72.3577% | Normal development (P. dumerilii embryos; degradation 10 h, dilution factor 1.28): 86.5288% and 89.8492% | Normal development (P. dumerilii embryos; degradation 24 h, dilution factor 0.2844): 11.3922% and 10.426% | Normal development (P. dumerilii embryos; degradation 24 h, dilution factor 0.32): 28.4579% | Normal development (P. dumerilii embryos; degradation 24 h, dilution factor 0.3657): 46.3636% and 52.9132% | Normal development (P. dumerilii embryos; degradation 24 h, dilution factor 0.4267): 72.0505% and 66.5657% | Normal development (P. dumerilii embryos; degradation 24 h, dilution factor 0.512): 75.7656% and 68.6094% | Normal development (P. dumerilii embryos; degradation 24 h, dilution factor 0.64): 71.3237% and 68.0033% | Normal development (P. dumerilii embryos; degradation 48 h, dilution factor 0.2695): 37.7015% and 37.2985% | Normal development (P. dumerilii embryos; degradation 48 h, dilution factor 0.2844): 52.938% and 47.9316% | Normal development (P. dumerilii embryos; degradation 48 h, dilution factor 0.32): 57.0093% and 59.2105% | Normal development (P. dumerilii embryos; degradation 48 h, dilution factor 0.3657): 74.6032% and 77.2414% | Normal development (P. dumerilii embryos; degradation 48 h, dilution factor 0.4267): 81.3111% and 83.4889% | Toxicity relative to PCMX (times less toxic) (P. dumerilii embryos; after 48-h degradation in seawater in darkness): 31 times | EC50,DF as share of EC50,DF of PCMX (P. dumerilii embryos; after 48 h degradation in darkness): 3.0% | half-life at 10 mg L−1 ([1]; pH 6.2): 76.2 h | half-life at 10 mg L−1 ([1]; pH 7.2): 13.4 h | half-life at 10 mg L−1 ([1]; pH 8.2): 1.74 h | Degradation rate constant k ([1]; pH 6.2, without solar irradiation): 0.009 h⁻¹ | Ln (C/C0) ([1]; pH 6.2 in darkness, 0 h): 0 | Ln (C/C0) ([1]; pH 7.2 in darkness, 0 h): 0 | Ln (C/C0) ([1]; seawater pH 8.2, darkness, 0 h): 0 | Degradation rate constant k ([1]; seawater pH 8.2, without solar irradiation): 0.397 h‒1 | half-life at 10 mg L−1 ([2]; pH 6.2): 4.13 h | half-life at 10 mg L−1 ([2]; pH 7.2): 3.2 h | half-life at 10 mg L−1 ([2]; pH 8.2): 1.33 h | Degradation rate constant k ([2]; pH 6.2, with solar irradiation): 0.168 h⁻¹ | Ln (C/C0) ([2]; pH 6.2 with solar irradiation): 0 | Degradation rate constant k ([2]; pH 7.2, with solar irradiation): 0.217 h⁻¹ | Ln (C/C0) ([2]; pH 7.2 with solar irradiation): 0 | Ln (C/C0) [2, 3]: 0 | Degradation rate constant k ([2]; seawater pH 8.2, with solar irradiation): 0.520 h‒1

Oc1ccc(I)cc1I [2,4-DIPh, 2,4-diiodophenol]
log reduction at 115 µg/mL (E. coli (ATCC 25922); pH 6.2, E. coli, pH 6.2): 3.33 | log reduction at 115 µg/mL (E. coli (ATCC 25922); pH 7.2, E. coli, pH 7.2): 2.77 | log reduction at 115 µg/mL (E. coli (ATCC 25922); pH 8.2, E. coli, pH 8.2): 3.02 | EC (3-log inactivation) (E. coli (ATCC 25922); pH 7.2, contact time 5 min, read-out: Dose for achieving 3-log inactivation of E. coli): 112 µg/mL | E. coli inactivation rate constant k (E. coli (ATCC 25922); pH 7.2, contact time 5 min): 0.79 L mg‒1 h‒1 | Normal development (%) (P. dumerilii embryos; dilution factor 14.7221): 3.475% and 5.221% | Normal development (%) (P. dumerilii embryos; dilution factor 16.1943): 15.5532% and 11.251% | Normal development (%) (P. dumerilii embryos; dilution factor 17.0467): 28.4871% and 30.5605% | Normal development (%) (P. dumerilii embryos; dilution factor 17.9937): 62.9083% and 58.6107% | Normal development (%) (P. dumerilii embryos; dilution factor 19.0522): 71.0249% and 62.3085% | Normal development (%) (P. dumerilii embryos; dilution factor 21.5924): 85.4546% and 82.7272% | Ln (C/C0) ([1]; seawater pH 8.2, darkness, 0 h): 0 | Ln (C/C0) ([1]; seawater pH 8.2, darkness, 24 h): 0.00447 and 0.004669 | Ln (C/C0) ([1]; seawater pH 8.2, darkness, 48 h): 0.01674 and 0.0143 | half-life at 10 mg L−1 ([2]; pH 8.2): 83 h | Ln (C/C0) [2, 3]: 0
